Assays:
[1] = system: Eimeria maxima (E. maxima) protozoa; experiment: Heat resistance of violacein: protozoal death rate after heat exposure; type: cell-based
Experimental: In the present example, the heat resistance of the violacein was to be evaluated. […] 200,000 Eimeria maxima (E. maxima) protozoa were reacted to the violacein at various concentrations of 0.1 to 100 ppm at a temperature of 41° C. for 4 hours, and the protozoal death rate (%) was measured by the similar method to Example 3 above, and this was shown in FIG. 5 and Table 12. In Table 12 below, the control group means a violacein solution without treating the high temperature condition, and the protozoa alone means a group to which violacein was not treated.

[2] = In vivo safety evaluation: violacein content remaining in body after feeding (LC/MS); settings: chicken (broiler), cecum luminal intestinal contents, oral, 50 ppm in feed; broilers fed feed comprising 50 ppm violacein for 7 days; read-out: Violacein content (mg/kg), Cecum luminal intestinal contents
Experimental: The safety evaluation of violacein was conducted in a breeding facility under the condition described in Example 1. At 7 days of age, broilers were fed a feed comprising 50 ppm violacein for 7 days, and an autopsy was conducted at 14 days of age, and the feed, appendix luminal intestinal contents, blood, spleen, liver and kidney were collected. For the feed used in formulation with the violacein, Daehanfeed Al-Choi product was used.
Each sample of the collected tissue was tested for the content of violacein through the HPLC method. For feed pretreatment, 1 g of each treatment group was weighed and diluted by adding 10 ? of MTBE solution, and then sonication was progressed for 1 hour, and filtration was performed using a […] syringe filter. Then, after evaporating the filtered sample for 1 hour, 1 ? , of 100% methanol was added. In addition, sonication was conducted for 1 minute, and it not dissolved, the supernatant was filtered once more using a […] syringe filter, and then placed in a vial for analysis. […] Then, the samples in which pretreatment was completed were analyzed using a set LC/MS instrument to measure the amount of violacein remaining in a body after feeding, and the result was shown in Table 13 below. In Table 13, ND (not detected) means not detected.

O=C1N=c2ccccc2=C1c1cc(-c2c[nH]c3ccc(O)cc23)[nH]c1O [Violacein, 3-(2-(5-Hydroxyindol-3-yl)-5-oxo-2-pyrrolin-4-ylidene)-2-indolinone]
Death rate according to violacein treatment condition ([1]; 85° C., 10 min, 0.1 ppm): 62%
Death rate according to violacein treatment condition ([1]; 85° C., 10 min, 1 ppm): 89%
Death rate according to violacein treatment condition ([1]; 85° C., 10 min, 10 ppm): 99%
Death rate according to violacein treatment condition ([1]; 85° C., 10 min, 100 ppm): 100%
Death rate according to violacein treatment condition ([1]; 90° C., 10 min, 0.1 ppm): 65%
Death rate according to violacein treatment condition ([1]; 90° C., 10 min, 1 ppm): 88%
Death rate according to violacein treatment condition ([1]; 90° C., 10 min, 10 ppm): 99%
Death rate according to violacein treatment condition ([1]; 90° C., 10 min, 100 ppm): 100%
Death rate according to violacein treatment condition ([1]; 95° C., 10 min, 0.1 ppm): 69%
Death rate according to violacein treatment condition ([1]; 95° C., 10 min, 1 ppm): 90%
Death rate according to violacein treatment condition ([1]; 95° C., 10 min, 10 ppm): 99%
Death rate according to violacein treatment condition ([1]; 95° C., 10 min, 100 ppm): 100%
Death rate according to violacein treatment condition ([1]; Control group (no high temperature), 0.1 ppm): 64%
Death rate according to violacein treatment condition ([1]; Control group (no high temperature), 1 ppm): 85%
Death rate according to violacein treatment condition ([1]; Control group (no high temperature), 10 ppm): 100%
Death rate according to violacein treatment condition ([1]; Control group (no high temperature), 100 ppm, 41° C. 4 hours): 100%
Heat resistance (killing efficacy after high temperature) ([1]; high temperature (80 to 95° C.), 10 minutes): the protozoal killing efficacy of violacein did not appear
concentration at 7 days of feeding [2]: 2100 ng/g

Source: patent publication US12721835B2, “Anticoccidial composition comprising violacein, and use thereof” (CJ CHEILJEDANG CORPORATION, priority 2020, dated 2026)
